# Reference: patent US20140349862A1, “METHODS AND COMPOSITIONS FOR THERAPEUTIC DRUG MONITORING AND DOSING BY POINT OF CARE PHARMACOKINETIC PROFILING” (priority 2011, published 2014)
# Like-named read-outs stand apart in the source and are kept apart here.
# Legend:
# clinical = settings: human, in vivo
# Source text: To determine whether Abraxane PK has enough variability to benefit from therapeutic drug monitoring, we performed a PK analysis using all published literature on Abraxane PK. […] J Clin Oncol. 23:7785-93.). […] It is expected that Genexol-PM and Nanoxel would have the same PK variations. The wide variability of Abraxane was rather surprising. The role of therapeutic drug monitoring is to reduce this variability. Though PK profiles for Abraxane and Taxol were similar, there are differences. These differences, however, are small and could be masked by the large variation in PK of Abraxane/Taxol.
# To determine whether medication used in assisted reproduction, i.e. FSH (follicle stimulating hormone), we performed a PK analysis using published literature on FSH PK. […] To compare it to 5-FU data, we used variability as SD/Mean.
# [1] = system: patients with metastatic colorectal cancer; settings: cited from earlier work
# [2] = initial BSA dose, blood plasma concentration measured
smiles,measurement,setting,value
"O=c1[nH]cc(F)c(=O)[nH]1 [5-FU, 5-fluorouracil]",AUC variability (range as % of the mean),clinical,138%
same,AUC variability as SD/Mean,clinical,34.42%
same,AUC,clinical; mean,9050 ng·h/mL
same,AUC,clinical; range,3900 to 16400 ng·h/mL
same,Median survival,[1]; BSA arm,16 months
same,Response rate,[1]; BSA group (dosing by body surface area),18.3%
same,Response rate,[1]; dose-adjusted group (PK-guided dosing),33.6%
same,Patients found to be over-dosed (doses adjusted downward),[1]; [2],Seventeen
same,Patients found to be under-dosed (doses adjusted upwards),[1]; [2],Fifty eight
same,Improvement of overall survival at two years,[1]; personalized 5-FU dose management versus BSA arm,48%
same,Median survival,[1]; personalized 5-FU dose management,22 months
same,Grade III/IV 5-FU related toxicities,[1]; personalized dose adjustment versus BSA dosing,significantly lower
